{"source": "patent US20210179655A1", "about": "“Prodrugs of a JAK Inhibitor Compound for Treatment of Gastrointestinal Inflammatory Disease” (THERAVANCE BIOPHARMA R&D IP, LLC, priority 2015, published 2021)", "key": {"[1]": {"assay": "Metabolic stability of comparison compounds in rat colon content", "assay_type": "in vitro ADME", "conditions": "10 μM in rat colonic content, up to 120 min", "method": "Colonic fecal content was harvested from a naïve male Sprague Dawley rat and was diluted 1:10 (1 gram to 9 mL phosphate buffer) and then homogenized using a handheld Omni Tissue Master. […] A 5 μL aliquot of diluted test compound was spiked into 300 μL of rat colonic content homogenate to begin the reaction at 37° C. Aliquots (50 μL) were removed from the incubation at the following time points (0, 15, 50, 85, and 120 min) and added into 200 μL of ACN with 3% formic acid and an internal standard molecule. […] All samples were centrifuged at 2000×g for 10 min after which 50 μL of supernatant was diluted into 150 μL of water and analyzed using a Thermo Q-Exactive LC-MS system. GraphPad Prism and Microsoft Excel were used to tabulate and plot the data."}, "[2]": {"molecular_target": "TYK2 (Homo sapiens, UniProt P29597)", "sequence (P29597 whole entry)": "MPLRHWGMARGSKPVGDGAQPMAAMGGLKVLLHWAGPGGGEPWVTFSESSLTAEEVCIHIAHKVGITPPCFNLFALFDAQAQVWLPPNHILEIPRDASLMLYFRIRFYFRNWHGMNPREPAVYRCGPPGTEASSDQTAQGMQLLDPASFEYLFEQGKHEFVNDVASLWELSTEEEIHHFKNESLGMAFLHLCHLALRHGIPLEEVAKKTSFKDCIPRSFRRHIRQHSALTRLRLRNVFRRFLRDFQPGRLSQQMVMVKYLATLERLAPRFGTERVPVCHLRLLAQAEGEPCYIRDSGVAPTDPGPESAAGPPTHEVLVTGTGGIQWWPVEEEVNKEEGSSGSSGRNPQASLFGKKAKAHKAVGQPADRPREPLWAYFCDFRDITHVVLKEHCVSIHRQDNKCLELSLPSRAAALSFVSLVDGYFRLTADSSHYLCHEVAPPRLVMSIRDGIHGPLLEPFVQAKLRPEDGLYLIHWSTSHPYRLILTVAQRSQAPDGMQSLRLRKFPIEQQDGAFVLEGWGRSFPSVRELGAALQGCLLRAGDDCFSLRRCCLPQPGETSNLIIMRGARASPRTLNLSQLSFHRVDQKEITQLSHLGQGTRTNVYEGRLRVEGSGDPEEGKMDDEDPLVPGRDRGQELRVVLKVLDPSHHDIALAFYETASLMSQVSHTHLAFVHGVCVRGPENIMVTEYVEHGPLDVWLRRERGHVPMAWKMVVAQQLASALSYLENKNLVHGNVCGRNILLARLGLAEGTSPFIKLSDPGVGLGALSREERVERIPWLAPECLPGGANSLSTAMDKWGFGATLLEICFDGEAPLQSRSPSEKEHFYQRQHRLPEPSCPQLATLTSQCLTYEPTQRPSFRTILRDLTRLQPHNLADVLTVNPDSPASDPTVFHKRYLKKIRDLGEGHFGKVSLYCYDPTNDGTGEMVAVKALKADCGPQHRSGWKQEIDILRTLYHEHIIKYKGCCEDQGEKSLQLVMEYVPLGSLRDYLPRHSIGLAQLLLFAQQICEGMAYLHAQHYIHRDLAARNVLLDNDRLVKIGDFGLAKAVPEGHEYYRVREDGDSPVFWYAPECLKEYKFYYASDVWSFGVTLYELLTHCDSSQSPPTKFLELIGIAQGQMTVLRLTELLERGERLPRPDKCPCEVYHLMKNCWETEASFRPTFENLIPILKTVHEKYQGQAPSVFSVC", "assay": "Biochemical JAK kinase assay (LanthaScreen) Tyk2", "description": "(§1) A panel of four LanthaScreen JAK biochemical assays (JAK1, 2, 3 and Tyk2) were carried in a common kinase reaction buffer (50 mM HEPES, pH 7.5, 0.01% Brij-35, 10 mM MgCl2, and 1 mM EGTA). Recombinant GST-tagged JAK enzymes and a GFP-tagged STAT1 peptide substrate were obtained from Life Technologies.\n(§2) Serially diluted compounds were pre-incubated with each of the four JAK enzymes and the substrate in white 384-well microplates (Corning) at ambient temperature for 1 h. ATP was subsequently added to initiate the kinase reactions in 10 μL total volume, with 1% DMSO. […] The JAK1 kinase activity was also tested at 1 mM ATP concentration. […] The plates were allowed to incubate at ambient temperature for 1 h before being read on the EnVision reader (Perkin Elmer).\n(§3) For dose-response analysis, percent inhibition data were plotted vs. compound concentrations, and IC50 values were determined from a 4-parameter robust fit model with the Prism software (GraphPad Software). Results were expressed as pIC50 (negative logarithm of IC50) and subsequently converted to pKi (negative logarithm of dissociation constant, Ki) using the Cheng-Prusoff equation."}, "[3]": {"system": "oxazolone-induced colitis", "assay": "Mouse model of oxazolone-induced colitis", "assay_type": "in vivo", "method": "Oxazolone-induced colitis is an experimental model that has a histological resemblance to human ulcerative colitis (Heller et al. […], 2002, 17, 629-638). Adult BALB/C mice (25-28 g, 9-12 weeks of age) from BioNeeds (India) were used in the assay. On day 1, animals were lightly anesthetized with isoflurane and the hairs between the shoulder were carefully removed before oxazolone (6 mg/mouse, 100 μL, 4:1 acetone: olive oil formulation) or vehicle solution was slowly applied for skin sensitization. Six days after skin sensitization, the mice were fasted overnight, anesthetized with ketamine and xylazine administered IP, and a 1 mL syringe filled with oxazolone solution, was inserted carefully ˜3.8 cm into the colon of the mouse. Animals were kept in a head down position and oxazolone (0.5 mg/50 μL/mouse in 50% ethanol) or 50% ethanol/saline was rectally instilled very slowly over a minute. The mice were held vertically (head down) for another minute to ensure that the entire oxazolone solution remained inside the colon. Drug treatment (PO, BID or TID) or vehicle was initiated the evening prior to the oxazolone intrarectal (IR) challenge. On both first (Day 1) and second (Day 2) days post-oxazolone IR challenge, the Disease Activity Index (DAI) was assessed by treatment-blinded experimenters for each mouse, according to the following subscores: stool consistency (0, normal; 2, loose; 4, diarrhea), gross bleeding and hemoccult test (0, absence; 2, blood tinged; 4, overt blood presence), and weight loss (0, none; 1, 1%-5%; 2, 6%-10%; 3, 11%-15%; 4, more than 15%); DAI=average of (stool consistency+blood presence+weight loss scores).\nAn area-under-the-curve (AUC) calculation based on total DAI scores was performed to track disease progression during the course of the experiment. AUC for each experimental group was calculated as: AUC=[(Day 1−Day 0)*Average (DAI Score of Day 0 & Day 1)]+[(Day 2−Day 1)*Average (DAI Score of Day 1 & Day 2)]. A Student's t-test compared the DAI AUC score of the vehicle/vehicle and vehicle/oxazolone groups to evaluate whether disease was induced following oxazolone treatment. This was followed by a one way ANOVA, with Dunnett's post hoc test, to compare the DAI AUC score of the vehicle/oxazolone and test compound/oxazolone groups. Statistical significance was defined by an α level set at p<0.05."}, "[4]": {"molecular_target": "T1, JAK3 (Homo sapiens, UniProt P52333)", "T1 sequence (P52333 1-1124)": "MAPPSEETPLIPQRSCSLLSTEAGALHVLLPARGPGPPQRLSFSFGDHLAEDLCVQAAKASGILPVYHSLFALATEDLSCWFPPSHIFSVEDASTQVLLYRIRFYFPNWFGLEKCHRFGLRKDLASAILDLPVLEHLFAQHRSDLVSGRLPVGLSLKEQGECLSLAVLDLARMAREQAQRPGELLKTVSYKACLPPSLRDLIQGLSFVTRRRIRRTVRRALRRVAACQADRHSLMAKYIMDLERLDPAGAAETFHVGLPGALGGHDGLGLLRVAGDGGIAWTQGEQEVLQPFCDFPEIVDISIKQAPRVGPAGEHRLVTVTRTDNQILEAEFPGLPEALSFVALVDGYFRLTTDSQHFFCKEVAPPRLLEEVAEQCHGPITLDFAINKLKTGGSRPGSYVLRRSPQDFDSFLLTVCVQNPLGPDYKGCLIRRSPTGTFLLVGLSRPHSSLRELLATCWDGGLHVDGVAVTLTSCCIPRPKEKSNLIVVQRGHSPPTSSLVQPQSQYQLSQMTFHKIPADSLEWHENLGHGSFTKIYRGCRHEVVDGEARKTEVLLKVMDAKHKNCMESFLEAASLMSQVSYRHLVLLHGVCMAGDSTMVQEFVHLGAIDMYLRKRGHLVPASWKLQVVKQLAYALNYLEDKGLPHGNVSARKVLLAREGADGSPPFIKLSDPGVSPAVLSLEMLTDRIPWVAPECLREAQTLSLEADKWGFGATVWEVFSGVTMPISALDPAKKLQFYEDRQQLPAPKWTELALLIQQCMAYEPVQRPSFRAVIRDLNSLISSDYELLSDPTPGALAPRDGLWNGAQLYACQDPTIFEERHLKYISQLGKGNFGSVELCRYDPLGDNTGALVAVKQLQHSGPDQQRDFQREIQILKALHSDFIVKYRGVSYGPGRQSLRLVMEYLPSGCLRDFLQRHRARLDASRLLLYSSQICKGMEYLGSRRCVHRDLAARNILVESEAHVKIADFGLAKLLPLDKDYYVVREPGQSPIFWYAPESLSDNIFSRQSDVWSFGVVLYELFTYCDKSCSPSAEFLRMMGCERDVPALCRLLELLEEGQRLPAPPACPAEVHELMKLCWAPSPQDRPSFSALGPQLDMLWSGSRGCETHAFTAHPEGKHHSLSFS", "assay": "Biochemical JAK kinase assay (LanthaScreen) JAK3", "description": "as §1, §2, §3"}, "[5]": {"molecular_target": "β-glucuronidase (Escherichia coli, UniProt P05804)", "sequence (P05804 whole entry)": "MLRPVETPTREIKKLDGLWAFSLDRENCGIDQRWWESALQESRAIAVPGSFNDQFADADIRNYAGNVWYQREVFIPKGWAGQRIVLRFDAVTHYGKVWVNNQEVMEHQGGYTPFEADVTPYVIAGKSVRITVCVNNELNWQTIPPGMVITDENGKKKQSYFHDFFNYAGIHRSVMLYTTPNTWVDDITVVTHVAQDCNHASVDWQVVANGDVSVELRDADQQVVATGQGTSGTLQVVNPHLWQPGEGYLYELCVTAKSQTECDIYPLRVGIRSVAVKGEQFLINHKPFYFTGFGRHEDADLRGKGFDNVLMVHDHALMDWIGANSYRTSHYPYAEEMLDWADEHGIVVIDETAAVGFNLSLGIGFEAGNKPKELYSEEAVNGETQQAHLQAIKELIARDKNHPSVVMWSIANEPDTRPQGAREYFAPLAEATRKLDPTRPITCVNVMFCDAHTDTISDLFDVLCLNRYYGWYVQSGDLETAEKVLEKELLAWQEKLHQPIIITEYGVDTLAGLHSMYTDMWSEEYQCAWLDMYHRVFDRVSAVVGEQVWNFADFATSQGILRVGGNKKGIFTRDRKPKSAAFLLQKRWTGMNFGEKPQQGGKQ", "assay": "Metabolic stability of compound 1 in β-glucuronidase from E. coli", "assay_type": "in vitro ADME", "conditions": "purified β-glucuronidase from E. coli, β-glucuronidase 100 Units/mL, 37° C.", "method": "The incubations were quenched at timepoints 0, 1, 2, 3, 5, 10, 15, 30, 60, and 90 min by addition of 100 μL of ACN. Samples were diluted with water+1% formic acid (4×) and analyzed using a Thermo Q-Exactive™ LC-MS system."}}}
{"smiles": "C[C@@H]1CCN(C(=O)CC#N)C[C@@H]1N(C)c1ncnc2c1ccn2C(=O)N(C)CCN(C)C(=O)OCc1ccc(O[C@@H]2O[C@H](C(=O)O)[C@@H](O)[C@H](O)[C@H]2O)c([N+](=O)[O-])c1", "note": "[Compound 1, (2S,3S,4S,5R,6S)-6-(4-((((2-(4-(((3R,4R)-1-(2-cyanoacetyl)-4-methylpiperidin-3-yl)(methyl)amino)-N-methyl-7H-pyrrolo[2,3-d]pyrimidine-7-carboxamido)ethyl)(methyl)carbamoyl)oxy)methyl)-2-nitrophenoxy)-3,4,5-trihydroxytetrahydro-2H-pyran-2-carboxylic acid]", "values": [{"measurement": "generation of active metabolite from the pro-drug", "setting": "[1]", "value": "generated measurable levels"}, {"measurement": "Ki", "setting": "[2]", "value": "> 1000", "unit": "nM"}, {"measurement": "reversal of oxazolone-induced colitis (DAI AUC score)", "setting": "[3]; 3, 10, and 60 mg/kg, PO, BID, similar magnitude to tofacitinib 30 and 60 mg/kg", "value": "significant reversal"}, {"measurement": "In vivo efficacy (oxazolone colitis), effective dose", "setting": "[3]; Effective dose that exhibits a comparable pharmacological effect in the oxazolone model compared to its vehicle", "value": 3, "unit": "mg/kg"}, {"measurement": "Ki", "setting": "[4]", "value": "> 158", "unit": "nM"}, {"measurement": "half-life at 30 μM", "setting": "[5]", "value": "< 5", "unit": "min"}]}
